{
  "source": "patent US12258425B2",
  "about": "“Peptide compositions and methods of use” (priority 2015, dated 2025)",
  "key": {"[1]": {"assay": "pH-solubility titration (visual: precipitate, turbidity, viscosity, gel)", "assay_type": "physicochemical", "method": "Compound 1 obtained as a trihydrochloride salt, as described in Example 1, and was screened for aqueous solubility at different pHs, by carrying out pH titrations according to the following protocol. In some cases Met-12 was run through an identical experimental procedure to determine its solubility pH profile under the same conditions.\nCompound 1 (10 mg) was dissolved in water (270-900 ? L) in a 2 mL clear plastic centrifuge tube with vortexing to give a pH ˜2.4 solution. […] This solution was then diluted with the appropriate amount of cosolvent or other excipient (sugar, surfactant etc.) to produce a clear acidic solution of 10 mg of Compound 1 in […] of the test solution at room temperature ([…]). Small aliquots of a basic solution (usually sodium hydroxide 1.0 M or 0.1 M, but sometimes other bases when investigating buffers) were added using a microliter syringe. Between additions the solution was mixed by vortexing, and the solution was inspected visually for precipitates of various types, turbidity, as a likely sign of microprecipitates, and viscosity to detect gel formation. pH measurements were taken at all these observation points. Some experiments titrated from the endogenous low pH to pH 10, but later titrations were not carried much above pH 7, or sometimes even lower."}, "[2]": {"system": "photoreceptor cells in the detached portion of the retina", "assay": "Rat retinal detachment model, TUNEL count of apoptotic cells", "assay_type": "in vivo, rats", "details": "for Cells positive for TUNEL in detached retina: Example 10, subretinal, three days", "method": "Briefly, rodents were anesthetized with a 50:50 mix of ketamine (100 mg/mL) and xylazine (20 mg/mL), and pupils were dilated with topical phenylephrine (2.5%) and tropicamide (1%). A 20-gauge microvitreoretinal blade (Walcott Scientific, Marmora, NJ) was used to create a sclerotomy 2 mm posterior to the limbus, carefully avoiding lens damage.\nUnder direct visualization through an operating microscope, a subretinal injector (Glaser, 32-gauge tip; BD Ophthalmic Systems, Sarasota, FL) was introduced through the sclerotomy into the vitreous cavity and then through a peripheral retinotomy into the subretinal space. Sodium hyaluronate (10 mg/mL) was slowly injected to detach the neurosensory retina from the underlying retinal pigment epithelium.\nIn all experiments, approximately one-third to one-half of the superonasal neurosensory retina was detached. In all animals, detachments were created in the same location to allow for direct comparison of retinal cell counts. Detachments were created in the left eye, leaving the right eye as the control. […]\nAfter three days rats were euthanized, retinas were excised, fixed, sectioned, and stained for TUNEL assays. Areas of detached retina were counted for number of apoptotic cells. Each experiment involved 4 fields from each of 4 sections obtained from 5 or 6 retinas for each dosing group."}, "[3]": {"system": "FasL-induced caspase 8 activation in 661W cells", "assay": "Blockade of FasL-induced caspase 8 activation in 661W cells", "assay_type": "cell-based", "details": "for Concentration of maximal inhibition of FasL-induced caspase 8 activation / EC50: FasL 500 ng/mL, 48 hours; for EC50: trihydrochloride, unbuffered solution in DMSO, read-out: EC50, inhibition of FasL-induced caspase 8 activation", "source_text": "Cell Culture. The 661W photoreceptor cell line was generously provided by Muayyad Al-Ubaidi (Department of Cell Biology, University of Oklahoma Health Sciences Center, Oklahoma City, OK). The 661W cell line is a photoreceptor line that has been immortalized by the expression of SV40-T antigen under control of the human interphotoreceptor retinol-binding protein (IRBP) promoter (Al-Ubaidi et al.,J Cell Biol., 119(6):1681-1687 (1992), herein incorporated by reference in its entirety). 661W cells express cone photoreceptor markers, including blue and green cone pigments, transducin, and cone arrestin (Tan et al., Invest Ophtholmol Vis Sci., (3):764-768 (2004), herein incorporated by reference in its entirety), and can undergo caspase-mediated cell death (Kanan et al., Invest Ophthalmol Vis Sci., 48(1):40-51 (2007), herein incorporated by reference in its entirety).\nThe 661W cell line was maintained in Dulbecco's modified Eagle's medium containing 10% fetal bovine serum, 300 mg/L glutamine, 32 mg/L putrescine, 40 μL/L β-mercaptoethanol, 40 μg/L hydrocortisone 21-hemisuccinate, and 40 μg/L progesterone. The media also contained penicillin (90 U/mL) and streptomycin (0.09 mg/mL). Cells were grown at 37° C. in a humidified atmosphere of 5% CO2 and 95% air.\nActivity Assays. Caspase 3, caspase 8 and caspase 9 activities were measured with colorimetric tetrapeptide cleavage assay kits, per the manufacturer's instructions (BioVision, Mountain View, Calif). Total (661W/retinal) protein was extracted as per a previously published protocol (Zacks et al., IOVS, 44(3):1262-1267 (2003), herein incorporated by reference in its entirety). One hundred micrograms of total (661W/retinal) protein was incubated with caspase 3 (DEVD-pNA), caspase 8 (IETD-pNA) or caspase 9 substrates (LEHD-pNA) at 200 μM final concentration for 60 minutes. Absorbance was measured at 405 nm in a microplate reader (Spectra-MAX 190, Molecular Devices, Sunnyvale, Calif). As a negative control, (661W/retinal) protein was incubated with assay buffer without the tetrapeptide. A second negative control was used in which assay buffer alone was incubated with the tetrapeptide. As a positive control, purified caspase 3, caspase 8, or caspase 9 was incubated with the tetrapeptide alone.\n661W cells were treated with a FasL. […] Activity of caspase 8 measured in 661W cell lysates increased with increasing concentration of FasL, peaking with the 500 ng/ml dose. 661W cells were treated with 500 ng/ml FasL and measured activity levels at various time points.\nThe assay system described above was used as an in vitro screening system to find potential inhibitors of the Fas-induced Caspase 8 activation pathway. […] This activity is very dependent on the formulation in which the Met-12 peptide is delivered. The final formulation for Met-12 was diluted 1000-fold for this assay, and to get to the top of the dose curve, which is normally 100 μM, one uses lesser dilutions."}, "[4]": {"details": "5 μg in 5 μL DMSO, trihydrochloride"}},
  "note": "Counter-ions that a name gives are not always drawn. Where a SMILES comes first, the peptide text is derived from it.",
  "data": [
    {"smiles": "CC[C@H](C)[C@H](NC(=O)[C@H](Cc1ccc(O)cc1)NC(=O)[C@H](CC(N)=O)NC(=O)[C@@H](NC(=O)[C@H](C)NC(=O)CNC(=O)[C@H](CC(C)C)NC(=O)[C@H](Cc1ccc(O)cc1)NC(=O)[C@@H](NC(=O)[C@H](Cc1cnc[nH]1)NC(=O)[C@@H](N)Cc1cnc[nH]1)[C@@H](C)CC)C(C)C)C(=O)N[C@@H](Cc1ccc(O)cc1)C(N)=O", "note": "[Compound 1 triacetate, His-His-Ile-Tyr-Leu-Gly-Ala-Val-Asn-Tyr-Ile-Tyr-NHz] (H-HHIYLGAVNYIY-NH2)", "values": [
      {"measurement": "Inherent pH of the salt", "setting": "[1]; 2 mg/mL in water", "value": "3.4-3.6 pH"},
      {"measurement": "Apoptotic cells in detached retina", "setting": "[2]; Example 12, 1 μg in DMSO", "value": 1.2, "unit": "%"}
    ]},
    {"smiles": "CC[C@H](C)[C@H](NC(=O)[C@H](Cc1ccc(O)cc1)NC(=O)[C@H](CC(N)=O)NC(=O)[C@@H](NC(=O)[C@H](C)NC(=O)CNC(=O)[C@H](CC(C)C)NC(=O)[C@H](Cc1ccc(O)cc1)NC(=O)[C@@H](NC(=O)[C@H](Cc1cnc[nH]1)NC(=O)[C@@H](N)Cc1cnc[nH]1)[C@@H](C)CC)C(C)C)C(=O)N[C@@H](Cc1ccc(O)cc1)C(N)=O", "note": "[Compound 1 trihydrochloride, His-His-Ile-Tyr-Leu-Gly-Ala-Val-Asn-Tyr-Ile-Tyr-NHz] (H-HHIYLGAVNYIY-NH2)", "values": [
      {"measurement": "Cells positive for TUNEL in detached retina", "setting": "[2]; 0.5 μg in DMSO", "value": 0.58, "unit": "%"},
      {"measurement": "Cells positive for TUNEL in detached retina", "setting": "[2]; 1 μg in DMSO", "value": 1.14, "unit": "%"},
      {"measurement": "Cells positive for TUNEL in detached retina", "setting": "[2]; [4]", "value": 0.82, "unit": "%"},
      {"measurement": "Cells positive for TUNEL in detached retina", "setting": "[2]; 10 μg in DMSO", "value": 0.9, "unit": "%"},
      {"measurement": "Apoptotic cells in detached retina", "setting": "[2]; Example 11, 1 μg in 2% propylene glycol, 2% poloxamer 407, pH 4", "value": 0.4, "unit": "%"},
      {"measurement": "Apoptotic cells in detached retina", "setting": "[2]; Example 11, 1 μg in 3% propylene glycol, 3% PS-20, pH 4.0", "value": 0.01, "unit": "%"},
      {"measurement": "Apoptotic cells in detached retina", "setting": "[2]; Example 11, 5 μg in 2% propylene glycol, 2% poloxamer 407, pH 4", "value": 0.3, "unit": "%"},
      {"measurement": "Apoptotic cells in detached retina", "setting": "[2]; Example 11, 5 μg in 3% propylene glycol, 3% PS-20, pH 4.0", "value": 2.9, "unit": "%"},
      {"measurement": "Apoptotic cells in detached retina", "setting": "[2]; Example 11, 5 μg in DMSO", "value": 2.5, "unit": "%"},
      {"measurement": "Apoptotic cells in detached retina", "setting": "[2]; Example 12, 1 μg in DMSO", "value": 2.4, "unit": "%"},
      {"measurement": "Most potent concentration (FIG. 3)", "setting": "[3]; 10 mg/mL in 1% PS-20, 3% PG, pH 4", "value": 3, "unit": "µM"},
      {"measurement": "Dose potency and efficacy versus Met-12 or Compound 1 in DMSO (FIG. 2)", "setting": "[3]; 10 mg/mL in 2% Polysorbate 20 and 2% PG at pH 4", "value": "both considerably more dose potent, but also more efficacious"},
      {"measurement": "Course of activity with concentration (FIG. 3)", "setting": "[3]; 10 mg/mL in 3% PS-20, 3% PG, pH 4, top dose 30", "value": "continued increase in activity"},
      {"measurement": "Potency relative to Met-12 by 1C50", "setting": "[3]; 661W cells, both in DMSO", "value": 10, "unit": "fold"},
      {"measurement": "Potency relative to Met-12 by concentration of maximal inhibition", "setting": "[3]; 661W cells, both in DMSO", "value": "approximately 3 fold"},
      {"measurement": "Dose potency versus Met-12 (FIG. 2)", "setting": "[3]; DMSO (20 mg/mL)", "value": "somewhat more dose potent than Met-12"},
      {"measurement": "Activity above 30 μM", "setting": "[3]; trihydrochloride in DMSO, U-shaped curve", "value": "almost inactive"},
      {"measurement": "Concentration of maximal inhibition of FasL-induced caspase 8 activation", "setting": "[3]; trihydrochloride in DMSO", "value": 3, "unit": "µM"},
      {"measurement": "EC50", "setting": "[3]", "value": 400, "unit": "nM"}
    ]},
    {"smiles": "CC[C@H](C)[C@H](NC(=O)[C@H](Cc1ccc(O)cc1)NC(=O)[C@H](CC(N)=O)NC(=O)[C@@H](NC(=O)[C@H](C)NC(=O)CNC(=O)[C@H](CC(C)C)NC(=O)[C@H](Cc1ccc(O)cc1)NC(=O)[C@@H](NC(=O)[C@H](Cc1c[nH]cn1)NC(=O)[C@@H](N)Cc1c[nH]cn1)[C@@H](C)CC)C(C)C)C(=O)N[C@@H](Cc1ccc(O)cc1)C(=O)O", "note": "[Met-12, HHIYLGAVNYIY, reference compound] (H-HHIYLGAVNYIY-OH; N-terminus assumed)", "values": [
      {"measurement": "Aqueous solubility (in words)", "setting": "[1]", "value": "extremely poor aqueous solubility"},
      {"measurement": "pH of onset of gelling", "setting": "[1]; 70% Propylene glycol", "value": 3.2, "unit": "pH"},
      {"measurement": "pH to which a clear mobile solution persists", "setting": "[1]; aqueous solution titrated with sodium hydroxide", "value": 3.0, "unit": "pH"},
      {"measurement": "Cells positive for TUNEL in detached retina", "setting": "[2]; [4]", "value": "over 1%"},
      {"measurement": "Loss in activity of a non-solution formulation", "setting": "[3]; 10 mg/mL in 20 mM citrate buffer pH 2.8, in vitro and in vivo assays", "value": "at least a fivefold loss in activity"},
      {"measurement": "Caspase 8 activation remaining relative to baseline", "setting": "[3]; Met-12 trihydrochloride at 10 μM, depending on the assay", "value": "0-25%"},
      {"measurement": "Dose at which maximum inhibition is achieved", "setting": "[3]; aqueous based formulations", "value": "50 to 100", "unit": "µM"},
      {"measurement": "Concentration of maximal inhibition of FasL-induced caspase 8 activation", "setting": "[3]; trihydrochloride in DMSO", "value": 10, "unit": "µM"},
      {"measurement": "EC50", "setting": "[3]", "value": 4000, "unit": "nM"}
    ]}
  ]
}
